The target in the assay is human IDO1 (Homo sapiens, UniProt P14902). In words: Assessment of human IDO-1 inhibitory activity in Hela cells (Interferon-gamma stimulated HeLa cells, Ehrlich reagent, absorbance 490 nm). Type of assay: cell-based. Also on record: endogenous in cells; host or cells: HeLa cells stimulated with interferon-gamma. The conditions noted are these: Hela Human IDO-1 cellular assay. Put shortly: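 IDO activity induced by 18 h IFN-γ (human 10 ng/ml or murine 5 ng/ml, final) after 1 h compound pre-treatment of HeLa cells at 37 °C. Supernatant kynurenine detected via Ehrlich reagent absorbance at 490 nm following 3% TCA at 50 °C; IC50 set against no-IFN-γ and untreated-stimulated controls.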
human IDO1, sequence (P14902 whole entry): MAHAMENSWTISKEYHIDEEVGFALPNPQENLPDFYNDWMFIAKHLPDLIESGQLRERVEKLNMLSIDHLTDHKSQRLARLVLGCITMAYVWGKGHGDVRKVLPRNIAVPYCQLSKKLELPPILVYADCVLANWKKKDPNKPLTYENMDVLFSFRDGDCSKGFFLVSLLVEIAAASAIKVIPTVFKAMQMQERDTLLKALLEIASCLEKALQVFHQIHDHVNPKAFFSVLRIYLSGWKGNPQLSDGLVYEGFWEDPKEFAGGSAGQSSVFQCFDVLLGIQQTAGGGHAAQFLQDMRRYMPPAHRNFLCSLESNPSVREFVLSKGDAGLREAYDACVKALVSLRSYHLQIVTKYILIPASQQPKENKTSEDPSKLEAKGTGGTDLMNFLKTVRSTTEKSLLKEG
What is called IC50 is the concentration needed to halve the response being measured. Low values mean inhibition by little substance, high ones a need for much substance. As for `CCOc1ncc(Nc2cc(C(CC(=O)O)C3CC3)ccc2N(CC)C2CCOCC2)cn1` (single isomer, unassigned) [Example 36, 3-cyclopropyl-3-(3-((2-ethoxypyrimidin-5-yl)amino)-4-(ethyl(tetrahydro-2H-pyran-4-yl)amino)phenyl)propanoic acid], the half-inhibitory concentration (IC50) was less than 50 nM.

Regarding `CCN(c1ccc(C(C)(C)CC(=O)O)cc1Nc1ccc(C#N)cc1)C1CCC(C)(O)CC1` (centres unmarked) [Example 4, 3-(3-((4-cyanophenyl)amino)-4-(ethyl(4-hydroxy-4-methylcyclohexyl)amino)phenyl)-3-methylbutanoic acid], the IC50 is less than 50 nM.

In turn, `CCCN(c1ccc(C(C)(C)CC(=O)O)cc1Nc1cnc(OCC)nc1)C1CCOCC1` [Example 24, 3-(3-((2-ethoxypyrimidin-5-yl)amino)-4-(propyl(tetrahydro-2H-pyran-4-yl)amino)phenyl)-3-methylbutanoic acid] had an IC50 of less than 50 nM.

As for `CCC(CC(=O)O)c1ccc(N2C[C@@H]3C[C@H]2CN3CC(F)F)c(Nc2ccc(C#N)cc2)c1` (single isomer, unassigned) [Example 450], the IC50 is greater than 50 nM.

In turn, `CCC(CC(=O)O)c1ccc(N2CCNCC2)c(Nc2ccc(C#N)cc2)c1` (single isomer, unassigned) [Example 671 Enantiomer 1, 3-(3-((4-Cyanophenyl)amino)-4-(piperazin-1-yl)phenyl)pentanoic acid] showed an IC50 greater than 50 nM.

The molecule `CCC(CC(=O)O)c1cc(F)c(N(CC)C2CCOCC2)c(Nc2cnc(OCC3CC3)nc2)c1` (single isomer, unassigned) [Example 141, 3-(3-((2-(cyclopropylmethoxy)pyrimidin-5-yl)amino)-4-(ethyl(tetrahydro-2H-pyran-4-yl)amino)-5-fluorophenyl)pentanoic acid] yielded a concentration for half-maximal inhibition (IC50) of less than 5 nM.

The molecule `COCC(CC(=O)O)c1ccc(N2C[C@@H](C)O[C@@H](C)C2)c(Nc2ccc(Cl)cc2)c1` (single isomer, unassigned) [Example 603] showed a half-maximal inhibitory concentration (IC50) greater than 50 nM.

In turn, `CCC(CC(=O)O)c1ccc(N2CCOC[C@H]2C(C)C)c(Nc2ccc(F)cc2)c1` (single isomer, unassigned) [Example 889] gave a concentration for half-maximal inhibition (IC50) of less than 5 nM.

On to `CCOc1ncc(Nc2cc(C(CC)CC(=O)O)ccc2N(CC)C2CCN(Cc3ccccc3)CC2)cn1` (single isomer, unassigned) [Example 939, 3-(4-((1-Benzylpiperidin-4-yl)(ethyl)amino)-3-((2-ethoxypyrimidin-5-yl)amino)phenyl)pentanoic acid], for which the concentration for half-maximal inhibition (IC50) is less than 50 nM.

`CCOc1ccc(Nc2cc(C(C)CC(=O)O)ccc2N(CC)C2CCOCC2)nn1` (single isomer, unassigned) [Example 631, 3-(3-((6-ethoxypyridazin-3-yl)amino)-4-(ethyl (tetrahydro-2H-pyran-4-yl)amino)phenyl)butanoic acid] gave an IC50 of less than 50 nM.

`COCC(CC(=O)O)c1ccc(N(CC(F)F)C2CCOCC2)c(Nc2ccc(C#N)cc2)c1` (single isomer, unassigned) [Example 322, 3-(3-((4-cyanophenyl)amino)-4-((2,2-difluoroethyl)(tetrahydro-2H-pyran-4-yl)amino)phenyl)-4-methoxybutanoic acid] showed a concentration for half-maximal inhibition (IC50) of less than 5 nM.

`CCN(c1ccc(C(COC)CC(=O)O)cc1Nc1ccc(F)cc1)C1CCS(=O)(=O)CC1` (single isomer, unassigned) [Example 172, 3-(4-((1,1-dioxidotetrahydro-2H-thiopyran-4-yl)(ethyl)amino)-3-((4-fluorophenyl)amino)phenyl)-4-methoxybutanoic acid] registered a concentration for half-maximal inhibition (IC50) of less than 50 nM.

`C[C@@H]1CN(c2ccc(C(CC(=O)O)C3CC3)cc2Nc2ccc(Cl)cc2)C[C@H](C)O1` (single isomer, unassigned) [Example 244] registered a concentration for half-maximal inhibition (IC50) of less than 50 nM.

Regarding `CCCN(c1ccc([C@H](COC)CC(=O)O)cc1NC(=O)Nc1ccc(C#N)cc1)C1CCOCC1` (single isomer, unassigned) [Example 577], the concentration for half-maximal inhibition (IC50) was greater than 50 nM.
